Experimental data published in patent US20080312271A1, “AZABENZIMIDAZOLYL COMPOUNDS” (Pfizer Inc., priority 2006, published 2008).

Target: T1, mGluR2 receptor (metabotropic glutamate receptor 2) (Homo sapiens, UniProt Q14416)
T1 construct: expressed in transfected cells
Experiment: mGluR2 Potentiator Screen, FLIPR, EC10-EC20 glutamate challenge
Format: cell-based
In short: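 Potentiator assay in HEK cells stably expressing mGluR2 with Gα15, glutamine-depleted overnight, loaded with Fluo-4 plus probenecid and GPT/pyruvate to remove glutamate. Peak fluorescence ratio curve-fitted, with maximum set by on-plate standards.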

T1 sequence (Q14416 19-872, species assumed): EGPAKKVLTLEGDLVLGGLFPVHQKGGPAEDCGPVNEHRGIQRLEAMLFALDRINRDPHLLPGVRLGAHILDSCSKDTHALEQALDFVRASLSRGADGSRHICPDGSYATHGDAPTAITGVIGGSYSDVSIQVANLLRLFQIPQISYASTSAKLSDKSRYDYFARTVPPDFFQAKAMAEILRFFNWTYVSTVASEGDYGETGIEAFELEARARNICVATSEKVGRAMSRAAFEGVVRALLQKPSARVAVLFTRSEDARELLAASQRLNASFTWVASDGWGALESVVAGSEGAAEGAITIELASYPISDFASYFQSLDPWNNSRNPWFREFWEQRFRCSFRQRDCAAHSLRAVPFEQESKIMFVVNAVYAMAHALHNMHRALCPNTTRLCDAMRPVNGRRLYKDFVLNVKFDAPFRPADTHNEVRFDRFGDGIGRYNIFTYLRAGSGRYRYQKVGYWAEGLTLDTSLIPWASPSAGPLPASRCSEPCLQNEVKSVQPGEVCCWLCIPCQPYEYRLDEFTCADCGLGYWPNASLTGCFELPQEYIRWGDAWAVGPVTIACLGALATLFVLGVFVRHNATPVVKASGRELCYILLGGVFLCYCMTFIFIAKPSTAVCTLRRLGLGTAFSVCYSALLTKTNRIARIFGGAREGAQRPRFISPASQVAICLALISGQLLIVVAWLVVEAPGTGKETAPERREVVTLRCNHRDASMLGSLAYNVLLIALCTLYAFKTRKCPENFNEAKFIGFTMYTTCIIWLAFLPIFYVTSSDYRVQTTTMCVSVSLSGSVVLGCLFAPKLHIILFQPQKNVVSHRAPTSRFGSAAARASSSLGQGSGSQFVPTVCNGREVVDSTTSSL

Row | SMILES | EC50
1 | Cn1c(CN2CCC(c3ccccc3C#N)CC2)nc2ncccc21 [compound 77] | > 5700 nM
2 | CO[C@@H]1CN(Cc2nc3cnccc3n2C)CC[C@@H]1c1ccc(C(F)(F)F)cc1 (relative stereo) [compound 227] | 606 nM
